Molecular target: T1, human mAChR M4 (Homo sapiens, UniProt P08173)
T1 construct: expressed in transfected cells; host or cells: CHO-K1 (ATCC), stably co-expressing the chimeric G protein Gqi5
T1 sequence (P08173 1-479): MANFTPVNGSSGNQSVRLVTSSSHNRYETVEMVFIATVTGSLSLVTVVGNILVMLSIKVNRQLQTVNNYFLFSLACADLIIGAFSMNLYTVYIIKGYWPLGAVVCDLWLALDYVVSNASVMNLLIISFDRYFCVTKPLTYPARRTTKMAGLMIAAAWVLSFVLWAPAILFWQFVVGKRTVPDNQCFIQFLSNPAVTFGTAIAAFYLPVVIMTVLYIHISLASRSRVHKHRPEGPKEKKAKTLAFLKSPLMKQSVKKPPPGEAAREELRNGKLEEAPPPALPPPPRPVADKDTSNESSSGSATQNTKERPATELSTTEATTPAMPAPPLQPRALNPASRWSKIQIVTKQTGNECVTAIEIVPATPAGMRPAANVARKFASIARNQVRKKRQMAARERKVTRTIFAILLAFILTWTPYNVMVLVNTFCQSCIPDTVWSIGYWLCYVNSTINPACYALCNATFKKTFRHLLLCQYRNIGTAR
Assay: mAChR M4 cell-based functional assay (calcium flux, decrease of EC80 acetylcholine response)
Details: for remaining activity at 30 µM: % ACh maximum at 30 μM, human M4, read-out: Emin; for IC50: M4/Gqi5/CHO-K1 cells, decrease of response to EC80 acetylcholine
Method: Human or rat M4 cDNA, along with the chimeric G protein Gqi5, were transfected into Chinese hamster ovary (CHO-K1) cells purchased from the American Type Culture Collection using Lipofectamine2000. M4/Gqi5/CHO cells were grown in Ham's F-12 medium containing 10% heat-inactivated fetal bovine serum (FBS), 20 mM HEPES, 500 μg/mL G418 sulfate, and 200 μg/mL Hygromycin B.
For high throughput measurement of agonist-evoked increases in intracellular calcium, CHO-K1 cells stably expressing muscarinic receptors were plated in growth medium lacking G418 and hygromycin at 15,000 cells/20 μL/well in Greiner 384-well black-walled, tissue culture (TC)-treated, clear-bottom plates (VWR). Cells were incubated overnight at 37° C. and 5% CO2. The next day, cells were washed using an ELX 405 (BioTek) with assay buffer: the final volume was then aspirated to 20 μL. Next, 20 μL of a 2.3 μM stock of Fluo-4/acetoxymethyl ester (Invitrogen, Carlsbad, Calif.), prepared as a 2.3 mM stock in DMSO and mixed in a 1:1 ratio with 10% (w/v) Pluronic F-127 and diluted in assay buffer, was added to the wells and the cell plates were incubated for 50 min at 37° C. and 5% CO2. Dye was removed by washing with the ELX 405 and the final volume was aspirated to 20 μL. Compound master plates were formatted in a 10 point concentration-response curve (CRC) format (1:3 dilutions) in 100% DMSO with a starting concentration of 10 or 1 mM using a BRAVO liquid handler (Agilent). Test compound CRCs were then transferred to daughter plates (240 nL) using the Echo acoustic plate reformatter (Labcyte, Sunnyvale, Calif.) and then diluted into assay buffer (40 μL) to a 2× stock using a Thermo Fisher Combi (Thermo Fisher Scientific, Waltham, Mass.).
Calcium flux was measured using the Functional Drug Screening System (FDSS) 6000 or 7000 (Hamamatsu Corporation, Tokyo, Japan) as an increase in the fluorescent static ratio. Compounds were applied to cells (20 μL, 2×) using the automated system of the FDSS at 2 seconds into the protocol and the data were collected at 1 Hz. At 143 s, 10 μL of an EC20 concentration of the muscarinic receptor agonist acetylcholine was added (5×), followed by the addition of 12 μL of an EC80 concentration of acetylcholine at the 268 s time point (5×). Agonist activity was analyzed as a concentration-dependent increase in calcium mobilization upon compound addition. Positive allosteric modulator activity was analyzed as a concentration-dependent increase in the EC20 acetylcholine response. Antagonist activity was analyzed as a concentration-dependent decrease in the EC80 acetylcholine response; for the purposes of the tables herein, an IC50 (inhibitory concentration 50) was calculated as a concentration-dependent decrease of the response elicited by an EC80 concentration of acetylcholine. Concentration-response curves were generated using a four-parameter logistical equation in XLFit curve fitting software (IDBS, Bridgewater, N.J.) for Excel (Microsoft, Redmond, Wash.) or Prism (GraphPad Software, Inc., San Diego, Calif.) or the Dotmatics software platform (Dotmatics, Bishop's Stortford, UK).
Compounds were synthesized as described above. Activity (IC50 and Emin) was determined in the mAChR M4 cell-based functional assay as described above and the data are shown in Table 4. The compound numbers correspond to those used in Examples 1-4 and Tables 1-3.

Compound	remaining activity at 30 µM	IC50
Cc1nn(C)cc1-c1ccc(NC2CC3(C2)CN(CC2CCOCC2)C3)nn1 [Compound 2, N-(6-(1,3-dimethyl-1H-1-pyrazol-4-yl)pyridazin-3-yl)-2-((tetrahydro-2H-pyran-4-yl)methyl)-2-azaspiro[3.3]heptan-6-amine]	46.5%	10 µM
Fc1ccc(Cl)c(-c2ccc(NC3CC4(C3)CN(CC3CCCOC3)C4)nn2)c1 (centres unmarked) [Compound 6, N-(6-(2-chloro-5-fluorophenyl)pyridazin-3-yl)-2-((tetrahydro-2H-pyran-3-yl)methyl)-2-azaspiro[3.3]heptan-6-amine]	5.4%	2.48 µM
Fc1ccc(Cl)c(-c2ccc(NC3CC4(C3)CN(CC3CCOCC3)C4)nn2)c1 [Compound 7, N-(6-(2-chloro-5-fluorophenyl)pyridazin-3-yl)-2-((tetrahydro-2H-pyran-4-yl)methyl)-2-azaspiro[3,3]heptan-6-amine]	7.8%	2.27 µM
Cc1nn(C)cc1-c1ccc(NC2CC3(C2)CN(CCC(C)(C)C)C3)nn1 [Compound 9, N-(6-(1,3-dimethyl-1H-pyrazol-4-yl)pyridazin-3-yl)-2-(3,3-dimethylbutyl)-2-azaspiro[3.3]heptan-6-amine]	12.4%	2.89 µM
Cc1nn(C)cc1-c1ccc(NCC2CC3(C2)CN(CC2CCCCC2)C3)nn1 [Compound 16, N-((2-(cyclohexylmethyl)-2-azaspiro[3.3]heptan-6-yl)methyl)-6-(1,3-dimethyl-1H-pyrazol-4-yl)pyridazin-3-amine]	13.5%	4.14 µM
CC(=O)Nc1ccc(-c2ccc(NCC3CC4(C3)CN(CCC(C)(C)C)C4)nn2)cc1 [Compound 17, N-(4-(6-(((2-(3,3-dimethylbutyl)-2-azaspiro[3.3]heptan-6-yl)methyl)amino)pyridazin-3-yl)phenyl)acetamide]	7.8%	2.2 µM
CC(=O)Nc1ccc(-c2ccc(NCC3CC4(C3)CN(CC3CCCCC3)C4)nn2)cc1 [Compound 19, N-(4-(6-(((2-(cyclohexylmethyl)-2-azaspiro[3.3]heptan-6-yl)methyl)amino)pyridazin-3-yl)phenyl)acetamide]	20.5%	8.14 µM
CC(C)(C)CCN1CC2(C1)CC1(CC1CNc1ccc(Cl)nn1)C2 (centres unmarked) [Compound 20, 6-Chloro-N-((7-(3,3-dimethylbutyl)-7-azadispiro[2.1.3^5.1^3]nonan-1-yl)methyl)pyridazin-3-amine]	4.9%	0.45 µM
Cc1nn(C)cc1-c1ccc(OCC2CC3(C2)CN(CC2CCCCC2)C3)nn1 [Compound 21, 2-(Cyclohexylmethyl)-6-(((6-(1,3-dimethyl-1H-pyrazol-4-yl)pyridazin-3-yl)oxy)methyl)-2-azaspiro[3.3]heptane]	8.6%	2.34 µM

Other lines, results leading:

remaining activity at 30 µM	IC50	Compound
9.8%	1.31 µM	CC(=O)Nc1ccc(-c2ccc(NC3CC4(C3)CN(CCC(C)(C)C)C4)nn2)cc1 [Compound 1, N-(4-(6-((2-(3,3-Dimethylbutyl)-2-azaspiro[3.3]heptan-6-yl)amino)pyridazin-3-yl)phenyl)acetamide]
4%	0.1 µM	Fc1ccc(Cl)c(-c2ccc(NC3CC4(C3)CN(CC3CC5C=CC3C5)C4)nn2)c1 (centres unmarked) [Compound 3, 2-(bicyclo[2.2.1]hept-5-en-2-ylmethyl)-N-(6-(2-chloro-5-fluorophenyl)pyridazin-3-yl)-2-azaspiro[3.3]heptan-6-amine]
2.8%	0.16 µM	CC(C)(C)CCN1CC2(CC(Nc3ccc(-c4cc(F)ccc4Cl)nn3)C2)C1 [Compound 4, N-(6-(2-chloro-5-fluorophenyl)pyridazin-3-yl)-2-(3,3-dimethylbutyl)-2-azaspiro[3.3]heptan-6-amine]
3.1%	0.21 µM	Fc1ccc(Cl)c(-c2ccc(NC3CC4(C3)CN(CC3CCCCC3)C4)nn2)c1 [Compound 5, N-(6-(2-chloro-5-fluorophenyl)pyridazin-3-yl)-2-(cyclohexylmethyl)-2-azaspiro[3.3]heptan-6-amine]
3.8%	0.15 µM	Fc1ccc(Cl)c(-c2ccc(NC3CC4(C3)CN(CC35CC6CC(CC(C6)C3)C5)C4)nn2)c1 [Compound 8, 2-(adamantan-1-ylmethyl)-N-(6-(2-chloro-5-fluorophenyl)pyridazin-3-yl)-2-azaspiro[3.3]heptan-6-amine]
6.5%	1.35 µM	Cc1cnn(C)c1-c1ccc(NCC2CC3(C2)CN(CCC(C)(C)C)C3)nn1 [Compound 11, 6-(1,4-Dimethyl-1H-pyrazol-5-yl)-N-((2-(3,3-dimethylbutyl)-2-azaspiro[3.3]heptan-6-yl)methyl)pyridazin-3-amine]
3.6%	0.7 µM	Cc1nn(C)cc1-c1ccc(NCC2CC3(C2)CN(CC2CC4C=CC2C4)C3)nn1 (centres unmarked) [Compound 12, N-((2-(bicyclo[2.2.1]hept-5-en-2-ylmethyl)-2-azaspiro[3.3]heptan-6-yl)methyl)-6-(1,3-dimethyl-1H-pyrazol-4-yl)pyridazin-3-amine]
6.1%	1.53 µM	Cc1nn(C)cc1-c1ccc(NCC2CC3(C2)CN(CC(C)C(C)(C)C)C3)nn1 (centres unmarked) [Compound 13, 6-(1,3-dimethyl-1H-pyrazol-4-yl)-N-((2-(2,3,3-trimethylbutyl)-2-azaspiro[3.3]heptan-6-yl)methyl)pyridazin-3-amine]
2.6%	0.059 µM	Fc1ccc(Cl)c(-c2ccc(NCC3CC4(C3)CN(CC3CC5C=CC3C5)C4)nn2)c1 (centres unmarked) [Compound 14, N-((2-(bicyclo[2.2.1]hept-5-en-2-ylmethyl)-2-azaspiro[3.3]heptan-6-yl)methyl)-6-(2-chloro-5-fluorophenyl)pyridazin-3-amine]
7.5%	1.49 µM	Cc1nn(C)cc1-c1ccc(NCC2CC3(C2)CN(CCC(C)(C)C)C3)nn1 [Compound 15, 6-(1,3-dimethyl-1H-pyrazol-4-yl)-N-((2-(3,3-dimethylbutyl)-2-azaspiro[3.3]heptan-6-yl)methyl)pyridazin-3-amine]
8.1%	1.55 µM	CC(=O)Nc1ccc(-c2ccc(NCC3CC4(C3)CN(CC3CC5C=CC3C5)C4)nn2)cc1 (centres unmarked) [Compound 18, N-(4-(6-(((2-(bicyclo[2.2.1]hept-5-en-2-ylmethyl)-2-azaspiro[3.3]heptan-6-yl)methyl)amino)pyridazin-3-yl)phenyl)acetamide]
4.6%	1.38 µM	Cc1nn(C)cc1-c1ccc(OCC2CC3(C2)CN(CCC(C)(C)C)C3)nn1 [Compound 22, 6-(((6-(1,3-dimethyl-1H-pyrazol-4-yl)pyridazin-3-yl)oxy)methyl)-2-(3,3-dimethylbutyl)-2-azaspiro[3.3]heptane]
3.7%	0.68 µM	Cc1nn(C)cc1-c1ccc(OCC2CC3(C2)CN(CC2CC4C=CC2C4)C3)nn1 (centres unmarked) [Compound 23, 2-(bicyclo[2.2.1]hept-5-en-2-ylmethyl)-6-(((6-(1,3-dimethyl-1H-pyrazol-4-yl)pyridazin-3-yl)oxy)methyl)-2-azaspiro[3.3]heptane]

— US11325896B2, “Antagonists of the muscarinic acetylcholine receptor M4” (Vanderbilt University, priority 2017, dated 2022)
